Test system: Plasmodium falciparum
Assay: GSK_TCMDC: Inhibition of Plasmodium falciparum 3D7 in whole erythrocytes, using parasite LDH activity as an index of growth.
Type: functional, organism-based
Settings: Plasmodium falciparum, 3D7

Row | Compound | XC50
1 | Cc1cc(N/N=C/c2ccccc2[N+](=O)[O-])c2ccccc2n1 | 776 nM
2 | CC1CCCN(Cc2c(O)ccc3c(O)c(-c4nc5ccccc5s4)c(=N)oc23)C1 (stereo not given) | 140 nM
3 | COCCN1CCC(N(Cc2ccc(-c3ccc(C(F)(F)F)cc3)cc2)C(=O)Cn2c(CCc3cccc(F)c3F)cc(=O)c3c2CCC3)CC1 | 1320 nM
4 | COc1ccc(C2CCN(C#N)C2)cc1OC1CCCC1 (stereo not given) | 228 nM
5 | CCOc1ccc(NC(=O)c2cn3nc(-c4ccc(OCC)cc4)cc3nc2C2CCNCC2)cc1 | 515 nM
6 | O=[N+]([O-])c1cccc(-c2nc3cc(C4=NC5CCCCC5N4)ccc3[nH]2)c1 (stereo not given) | 195 nM
7 | COC(=O)Nc1cc(C(F)(F)F)ccc1N1CCCC(NS(=O)(=O)c2ccc(C(C)(C)C)cc2)C1 (stereo not given) | 380 nM
8 | CC(C)c1ccc(NC(=O)N2CCc3ccc(OCCN(C(C)C)C(C)C)cc32)c(Br)c1 | 1090 nM
9 | COc1cc(OC)cc(-c2nn(-c3ccc([N+](=O)[O-])cc3C#N)c(=S)n2Cc2ccco2)c1 | 577 nM
10 | Cc1cccc2nc(-c3ccc(-c4ccc(NC(=O)NC5CC5c5ccccc5)cc4)cc3)[nH]c12 (stereo not given) | 876 nM
11 | O=C(/C=C/c1ccc(Cl)c(Cl)c1)N1CCC(CN2CCC(Cc3cc4ccccc4[nH]3)CC2)CC1 | 630 nM
12 | CC[C@H]1CN2CC[C@H]1C[C@H]2[C@H](O)c1cc(-c2ccccc2F)nc2ccc(OC)cc12 | 78.9 nM
13 | COC(=O)c1ccc(CC(C)NCC(O)c2cccc(C(F)(F)F)c2)cc1F (stereo not given) | 1060 nM
14 | COc1cccc(NC(=O)c2ccc(NCCCN3CCC(C)CC3)c([N+](=O)[O-])c2)c1 | 770 nM
15 | CCCNc1ccc2nccc(CCN3CCC(NCc4ccc5c(n4)NC(=O)CS5)CC3)c2n1 | 720 nM
16 | CN(C)CCOc1cccc(NC(=O)Nc2ccc(-c3ccccc3)cc2)c1 | 878 nM
17 | COc1ccc2[nH]c(C)cc(=NN=Cc3cccc(Cl)c3)c2c1 | 632 nM
18 | CCOc1ccc(/C=C/C(=O)Nc2cccc3c2CCN(C)C3)cc1 | 1110 nM
19 | NC1=NC(Cc2ccccc2)N(c2ccc(Cl)cc2)C(N)=N1 (stereo not given) | 137 nM
20 | CC1(C)CCC(C)(C)c2c1ccc(C1CCN(CCCCNC(=O)c3ccc(-c4ccc(C#N)cc4)cc3)CC1)c2O | 226 nM
21 | CCN(CCCN1CCCCC1)c1cc(C)nc(Nc2cc(Cl)cc(Cl)c2)n1 | 286 nM
22 | CCNCc1cccc(-c2ccc3ccnc(N)c3c2)c1 | 46.9 nM
23 | COc1ccc2ccccc2c1C=NN=c1cc(C)[nH]c2c(C)cccc12 | 818 nM
24 | CC(C)CCN(Cc1cncn1Cc1ccccc1F)C(=O)c1cncc(-c2ccccc2)c1 | 791 nM
25 | CCCC(=O)NC(c1cccs1)c1cc(Cl)c2cccnc2c1O (stereo not given) | 848 nM

Row | Compound | XC50
26 | CN(C)c1ccc(CN2CCCCC(NC(=O)c3cc(-c4ccccc4F)cs3)C2)cc1 (stereo not given) | 826 nM
27 | CCCC(C)Nc1nc(C)cc(N[C@@H](Cc2ccccc2)C(=O)NCCOc2ccccc2)n1 (stereo not given in full) | 699 nM
28 | CC(C)CCNc1nc2ccccc2nc1Nc1cccc(C(F)(F)F)c1 | 905 nM
29 | O=C(NCCc1ccccc1)N(Cc1ccc(-c2cccc(CN3CCNCC3)c2)cc1)C1CCN(Cc2ccccc2)CC1 | 1360 nM
30 | CCCCCCC(C)c1cc(O)c2c(c1)OC(C)(C)C=C2c1ccncc1 (stereo not given) | 733 nM
31 | Cn1ncc2c3c(CCN4CCC(NCc5cc6c(cn5)OCC6)CC4)c(Cl)cnc3ccc21 | 881 nM
32 | O=C(/C=C/c1ccc(Cl)c(Cl)c1)NCCCCCCN1CCN(C(=O)Nc2ccc(C(F)(F)F)cc2)CC1 | 397 nM
33 | COc1ccc(CSC2CCCCC23NC(=S)NC3=S)cc1 (stereo not given) | 850 nM
34 | N#CC(c1ccc(F)cc1)c1ccc2c(C(F)(F)F)cc(C(F)(F)F)nc2n1 (stereo not given) | 726 nM
35 | Oc1ccc2[nH]c(-c3cccc(F)c3)nc2c1CN1CCCC1 | 795 nM
36 | Cc1cccc2nc(-c3cccc(-c4cccc(NC(=O)NC5CC5c5ccccc5)c4)c3)[nH]c12 (stereo not given) | 705 nM
37 | CCn1cc(C=C2Oc3c(ccc(O)c3CN3CCCCC3)C2=O)c2ccccc21 | 281 nM
38 | COc1cc(NC(=O)c2ccc(-c3ccc(C(C)=O)cc3)s2)ccc1OCCN1CCCC1 | 147 nM
39 | COc1cc2nccc(Nc3cccc(Oc4ccccc4)c3)c2cc1OC | 643 nM
40 | COc1cccc(CNC(=O)c2cnc(N3CCN(c4ccncc4)CC3)c(Cl)c2)c1 | 1150 nM
41 | COc1cc2ncnc(Nc3ccc4nc(Cc5ccccc5)[nH]c4c3)c2cc1OC | 1480 nM
42 | CCCCCCNC(=O)c1nn(CCN2CCC(N3CCCC3)CC2)cc1-c1ccc(Cl)c(Cl)c1 | 733 nM
43 | CCOC(=O)c1ccc(OCCCCCCOc2ccc(Br)cc2)cc1 | 777 nM
44 | O=C(Nc1cccc(CN2CCCN(Cc3ccc(O)cc3)CC2)c1)c1ccc(-c2ccccc2)cc1 | 342 nM
45 | Cc1cccc2nc(-c3ccc(-c4ccc(CNCc5ccccc5)cc4)s3)[nH]c12 | 208 nM
46 | CCC(C)C(COC(=O)c1cc(OC)c(OC)c(OC)c1)N(C)CCN(C)C(COC(=O)c1cc(OC)c(OC)c(OC)c1)C(C)CC (stereo not given) | 947 nM
47 | N#CCSc1nnc(-c2ccccc2)c2ccccc12 | 723 nM
48 | Cc1cccc2nc(-c3ccc(-c4ccc(CN5CCC(CO)CC5)cc4)s3)[nH]c12 | 812 nM
49 | O=C(Nc1ccccc1F)N(CCCn1ccnc1)Cc1csc(-c2ccc(CNCc3ccccc3)cc2)n1 | 841 nM
50 | COc1ccc2nccc([C@@H](O)CN3CCC(NCc4nc5cc(F)c(F)cc5[nH]4)CC3)c2c1 | 533 nM

Row | Compound | XC50
51 | CC(C)CCN1CCCN(Cc2ccc(C(=O)Nc3ccc(C(C)(C)C)cc3)cc2)CC1 | 867 nM
52 | Cc1cc(F)ccc1N(c1nc(-c2cc(Cl)ccc2Cl)cs1)C1CCNC1 (stereo not given) | 1010 nM
53 | CCOc1cccc(C(=O)Nc2cccc(CN3CCCN(Cc4cccc(O)c4)CC3)c2)c1 | 1090 nM
54 | CCCCc1nc2nc(N)nc(N)c2cc1CCC | 308 nM
55 | O=C(Nc1ccc(Cl)cc1)Nc1cccc(-c2cccc(-c3nc4ccccc4[nH]3)c2)c1 | 131 nM
56 | c1cc(CNCCc2ccncc2)cc(-c2csc(-c3nc4ccccc4[nH]3)c2)c1 | 258 nM
57 | Cc1cc(CN2CC[C@H](NC(=O)c3ccc(Cl)c(Cl)c3)C2)ccc1OCCN1CCCC1 | 1160 nM
58 | CC[C@H]1CN2CC[C@@H]1C[C@H]2[C@H](O)c1cc[n+]([O-])c2ccc(OC)cc12 | 748 nM
59 | COc1cc2nc(N3CCN(c4nc(N)c5cc(OC)c(OC)cc5n4)CC3)nc(N)c2cc1OC | 146 nM
60 | COc1ccc2nccc([C@@H](O)CN3CCC(NCCc4c[nH]c5ccccc45)CC3)c2c1 | 210 nM
61 | CC(=O)Nc1ccc(CN(Cc2ccc(F)cc2)Cc2ccc3c(c2)OCO3)cc1 | 943 nM
62 | CCCSc1nc2c(c(=O)n1Cc1ccco1)C1(CCCCC1)Cc1ccccc1-2 | 424 nM
63 | CC(C)NCC(O)Cn1c2ccc(Br)cc2c2cc(Br)ccc21 (stereo not given) | 451 nM
64 | CN1CCN(c2ccnc3ccc(NC(=O)Nc4ccc5c(c4)CCCC5=O)cc23)CC1 | 132 nM
65 | CN(C)CCN(C)Cc1ccc(-c2ccc(NC(=O)c3ccc(Cl)cc3)cc2)cc1 | 943 nM
66 | COc1ccc(C(C(=O)NC2CCN(C[C@H](O)c3ccnc4ccc(OC)cc34)CC2)N2CCN(c3ccc(F)cc3)CC2)cc1 (stereo not given in full) | 214 nM
67 | COc1cc2nccc(Nc3ccc4c(cnn4Cc4cccc(F)c4)c3)c2cc1OC | 237 nM
68 | c1ccc2c3c(ccc2c1)Sc1c(ccc2ccccc12)N3 | 1070 nM
69 | COc1ccc(-c2nonc2NC(=O)c2ccc(OC(C)C)cc2)cc1OC | 635 nM
70 | CCCN(CCC)CCCNc1ccc(C(=O)Nc2ccc(OCC)cc2)cc1[N+](=O)[O-] | 992 nM
71 | COc1ccc(OCCn2cc(C(=O)c3ccco3)c3ccccc32)cc1 | 773 nM
72 | Cc1cnc(C(=O)Nc2cccc(-c3cccc(-c4nc5cccc(C)c5[nH]4)c3)c2)cn1 | 579 nM
73 | O=C1Nc2cccc3c2C1(CCCCCN1CC=C(c2c[nH]c4ccccc24)CC1)CCC3 (stereo not given) | 740 nM
74 | c1ccc2[nH]c(-c3ccc(-c4ccc(CN5CCN(CCN6CCOCC6)CC5)cc4)s3)nc2c1 | 280 nM
75 | CCCCCCCCS(=O)(=O)NCCCC1CCN(CCCCCNC(=O)C=Cc2ccc(Cl)c(Cl)c2)CC1 | 858 nM

Row | Compound | XC50
76 | Cc1cc(C2CCCCN2C)ccc1-c1ccc(C(=O)N2CCc3cc4c(cc32)C2(CCN(C)CC2)CO4)cc1 (stereo not given) | 791 nM
77 | O=C(/C=C/c1ccc(Cl)c(Cl)c1)NCCCCCN1CCCC(CNC(=O)c2sc3ccccc3c2Cl)C1 (stereo not given) | 870 nM
78 | N=C(NCCc1ccc(Cl)c(Cl)c1)c1ccc2ccccc2c1 | 514 nM
79 | CC(Cc1ccc(OCCCCOc2ccccc2)cc1)NCCc1ccccc1Cl (stereo not given) | 175 nM
80 | O=C(O)CNCC(O)c1ccccc1 (stereo not given) | 184 nM
81 | CCCn1cnc2cc(C(=O)Nc3ccc(-c4cccc(CN(C)C)c4)cc3)ccc2c1=O | 928 nM
82 | COc1ccc(C2NCCc3c2[nH]c2ccccc32)cc1CN1CCN(c2ccc(F)cc2)CC1 (stereo not given) | 776 nM
83 | CN(C)CCc1c[nH]c2ccc(C(=O)Nc3ccc(-c4ccncc4)cc3)cc12 | 567 nM
84 | O=C(NCC1CCN(Cc2ccc3c(c2)OCCO3)C1)c1cc(-c2cccc(C(F)(F)F)c2)cs1 (stereo not given) | 978 nM
85 | CCc1nnc2sc(-c3cccc(NC(=O)c4ccc(OC)c(Cl)c4)c3)nn12 | 1140 nM
86 | CC(=O)Nc1ccc(C(=O)Nc2cccc(-c3ccc(-c4nc5cc(C(F)(F)F)ccc5[nH]4)s3)c2)cn1 | 126 nM
87 | CCOc1cc(-c2nnc3[nH]c(=O)n(C)c(=O)c3n2)ccc1OC(C)C | 400 nM
88 | FC(F)(F)c1cccc(CNCCCCCNCc2ccc(Cl)cc2)c1 | 1030 nM
89 | CCc1ccc(CN2CCC(CNC(=O)c3cc(-c4ccccc4Cl)cs3)C2)cc1 (stereo not given) | 1430 nM
90 | CCOC(=O)C(=O)N1c2ccc(OCC)cc2-c2c(ssc2=S)C1(C)C | 216 nM
91 | COC(=O)c1cccc(NC(=O)NC2CCN(c3ccnc(Nc4ccc(F)cc4)n3)C2)c1 (stereo not given) | 500 nM
92 | CC(Cc1ccc(SC(C)C)cc1)NCC(O)c1cccc(Cl)c1 (stereo not given) | 827 nM
93 | COc1ccccc1C1CN(CCNC(=O)c2nc(C)c[nH]2)Cc2ccccc2O1 (stereo not given) | 797 nM
94 | COc1cc(CNCCCCCCNCc2cc(OC)c(OC)c3ccccc23)c2ccccc2c1OC | 235 nM
95 | CCN1CCN(c2cc(C)c3cc(NC(=O)c4cc(OC)cc(OC)c4)ccc3n2)CC1 | 156 nM
96 | CCCCCCNC(=O)C1Cc2c([nH]c3ccc(F)cc23)C2(CCN(Cc3ccccc3)CC2)N1 (stereo not given) | 871 nM
97 | CN(c1ccccc1C(=O)Nc1ccccc1Oc1ccccc1)S(=O)(=O)c1ccccc1 | 1150 nM
98 | Cc1cc(NC(=O)Nc2ccc(I)c(OCCN(C)C)c2)ccc1Br | 625 nM
99 | Cc1ccc(N2CCc3c(-c4cc5cccnc5nc4C)cc(C)nc32)c(Cl)c1 | 577 nM
100 | Cc1ccccc1Nc1nc(NCCc2ccccc2)nc2ccccc12 | 1260 nM

From ChEMBL document CHEMBL1157539, “Thousands of chemical starting points for antimalarial lead identification” (Nature, 2010)
